Data as given in patent US9840510B1, “Pyrazolo[1,5-a]pyrimidinyl carboxamide compounds and their use in the treatment of medical disorders” (Lysosomal Therapeutics Inc., priority 2016, dated 2017).
Values after ≈ are worked out from the molar mass of the structure shown.

Assay: Compound solubility in water
Type: physicochemical

solubility | SMILES
0.07 µg/mL (≈ 0.178 µM) | Cc1cc(-c2ncccc2F)nc2c(C(=O)NC(C3CC3)C(F)(F)F)cnn12 (stereo not drawn) [III-203]
0.1 µg/mL (≈ 0.254 µM) | Cc1cc(-c2ccc(F)cn2)nc2c(C(=O)NC(C3CC3)C(F)(F)F)cnn12 (stereo not drawn) [III-204]
0.1 µg/mL (≈ 0.254 µM) | Cc1cc(-c2cc(F)ccn2)nc2c(C(=O)NC(C3CC3)C(F)(F)F)cnn12 (stereo not drawn) [III-205]
2.1 µg/mL (≈ 5.12 µM) | Cc1cc(-c2ncccc2Cl)nc2c(C(=O)NC(C3CC3)C(F)(F)F)cnn12 (stereo not drawn) [III-206]
0.6 µg/mL (≈ 1.46 µM) | Cc1cc(-c2cc(Cl)ccn2)nc2c(C(=O)NC(C3CC3)C(F)(F)F)cnn12 (stereo not drawn) [III-207]
0.04 µg/mL (≈ 0.0976 µM) | Cc1cc(-c2ccc(Cl)cn2)nc2c(C(=O)NC(C3CC3)C(F)(F)F)cnn12 (stereo not drawn) [III-208]
1.2 µg/mL (≈ 3.15 µM) | Cc1cc(-c2nccs2)nc2c(C(=O)NC(C3CC3)C(F)(F)F)cnn12 (stereo not drawn) [III-209]
2.4 µg/mL (≈ 6.59 µM) | Cc1cc(-c2ccc3c(c2)OCO3)nc2c(C(=O)N[C@@H](C)C3CC3)cnn12 [III-210]
0.2 µg/mL (≈ 0.501 µM) | Cc1cc(-c2ccccc2C#N)nc2c(C(=O)NC(C3CC3)C(F)(F)F)cnn12 (stereo not drawn) [III-211]
0.7 µg/mL (≈ 1.87 µM) | Cc1cc(-c2ccccc2C#N)nc2c(C(=O)N[C@H](C)C(F)(F)F)cnn12 [III-212]
0.6 µg/mL (≈ 1.61 µM) | Cc1cc(-c2ccccc2C#N)nc2c(C(=O)N[C@@H](C)C(F)(F)F)cnn12 [III-213]
2.3 µg/mL (≈ 5.82 µM) | Cc1cc(-c2cc(C)n3ncc(C(=O)NC(C4CC4)C(F)(F)F)c3n2)sn1 (stereo not drawn) [III-214]
0.3 µg/mL (≈ 0.759 µM) | Cc1cc(-c2cc(C)n3ncc(C(=O)N[C@H](C4CC4)C(F)(F)F)c3n2)sn1 [III-215]
0.9 µg/mL (≈ 2.28 µM) | Cc1cc(-c2cc(C)n3ncc(C(=O)N[C@@H](C4CC4)C(F)(F)F)c3n2)sn1 [III-216]
3.2 µg/mL (≈ 8.85 µM) | Cc1cc(-c2cccc3ncoc23)nc2c(C(=O)N[C@@H](C)C3CC3)cnn12 [III-217]
2.7 µg/mL (≈ 6.69 µM) | Cc1cc(-c2cccc3ncoc23)nc2c(C(=O)NC(C)(C)C(F)(F)F)cnn12 [III-219]
0.1 µg/mL (≈ 0.247 µM) | Cc1cc(-c2ccc3scnc3c2)nc2c(C(=O)NC(C)C(F)(F)F)cnn12 (stereo not drawn) [III-220]
0.2 µg/mL (≈ 0.493 µM) | Cc1cc(-c2cccc3ncsc23)nc2c(C(=O)NC(C)C(F)(F)F)cnn12 (stereo not drawn) [III-221]
0.6 µg/mL (≈ 1.59 µM) | Cc1cc(-c2cccc3ncsc23)nc2c(C(=O)N[C@@H](C)C3CC3)cnn12 [III-222]
0.2 µg/mL (≈ 0.533 µM) | Cc1cc(-c2cccc3ncoc23)nc2c(C(=O)NC(C)(C)C3CC3)cnn12 [III-223]
1.2 µg/mL (≈ 2.74 µM) | CCc1cc(N2CCN(C(C)C)C2=O)nc2c(C(=O)NC(C3CC3)C(F)(F)F)cnn12 (stereo not drawn) [III-224]

solubility | SMILES
19.3 µg/mL (≈ 45.5 µM) | Cc1cc(N2CCN(C(C)C)C2=O)nc2c(C(=O)NC(C3CC3)C(F)(F)F)cnn12 (stereo not drawn) [III-225]
5.9 µg/mL (≈ 14.3 µM) | CCc1cc(N2CCN(C(C)C)C2=O)nc2c(C(=O)NC(C)C(F)(F)F)cnn12 (stereo not drawn) [III-226]
9.4 µg/mL (≈ 23.6 µM) | Cc1cc(N2CCN(C(C)C)C2=O)nc2c(C(=O)NC(C)C(F)(F)F)cnn12 (stereo not drawn) [III-227]
2.4 µg/mL (≈ 6.28 µM) | Cc1cc(N2CCNC2=O)nc2c(C(=O)NC(C3CC3)C(F)(F)F)cnn12 (stereo not drawn) [III-228]
13.5 µg/mL (≈ 36.2 µM) | CCc1cc(N2CCN(C(C)C)C2=O)nc2c(C(=O)NC(C)(C)C)cnn12 [III-229]
2.6 µg/mL (≈ 6.76 µM) | Cc1cc(N2CCN(C(C)C)C2=O)nc2c(C(=O)NC(C)(C)C3CC3)cnn12 [III-230]
3 µg/mL (≈ 7.27 µM) | Cc1cc(N2CCN(C(C)C)C2=O)nc2c(C(=O)NC(C)(C)C(F)(F)F)cnn12 [III-231]
23.7 µg/mL (≈ 66.1 µM) | Cc1cc(N2CCN(C(C)C)C2=O)nc2c(C(=O)NC(C)(C)C)cnn12 [III-232]
0.7 µg/mL (≈ 1.51 µM) | Cc1cc(N2CCN(CC(F)(F)F)C2=O)nc2c(C(=O)NC(C3CC3)C(F)(F)F)cnn12 (stereo not drawn) [III-233]
0.2 µg/mL (≈ 0.521 µM) | Cc1cc(-c2cccc(Cl)n2)nc2c(C(=O)NC(C)C(F)(F)F)cnn12 (stereo not drawn) [III-234]
6.4 µg/mL (≈ 16.7 µM) | Cc1cc(-c2cccc(Cl)n2)nc2c(C(=O)N[C@H](C)C(F)(F)F)cnn12 [III-235]
5.9 µg/mL (≈ 15.4 µM) | Cc1cc(-c2cccc(Cl)n2)nc2c(C(=O)N[C@@H](C)C(F)(F)F)cnn12 [III-236]
0.05 µg/mL (≈ 0.122 µM) | Cc1cc(-c2cccc(Cl)n2)nc2c(C(=O)NC(C3CC3)C(F)(F)F)cnn12 (stereo not drawn) [III-237]
13.5 µg/mL (≈ 34 µM) | CCc1cc(N2CCOCC2)nc2c(C(=O)NC(C3CC3)C(F)(F)F)cnn12 (stereo not drawn) [III-238]
0.8 µg/mL (≈ 2.19 µM) | Cc1cc(-c2ccon2)nc2c(C(=O)NC(C3CC3)C(F)(F)F)cnn12 (stereo not drawn) [III-239]
3.2 µg/mL (≈ 7.93 µM) | Cc1oc(C#N)cc1-c1cc(C)n2ncc(C(=O)NC(C3CC3)C(F)(F)F)c2n1 (stereo not drawn) [III-242]
0.008 µg/mL (≈ 0.0198 µM) | Cc1cc(C#N)c(-c2cc(C)n3ncc(C(=O)NC(C4CC4)C(F)(F)F)c3n2)o1 (stereo not drawn) [III-245]
3.1 µg/mL (≈ 8.17 µM) | Cc1ncc(-c2cc(C)n3ncc(C(=O)NC(C4CC4)C(F)(F)F)c3n2)o1 (stereo not drawn) [III-246]
0.6 µg/mL (≈ 1.58 µM) | Cc1ncc(-c2cc(C)n3ncc(C(=O)N[C@H](C4CC4)C(F)(F)F)c3n2)o1 [III-247]
0.7 µg/mL (≈ 1.85 µM) | Cc1ncc(-c2cc(C)n3ncc(C(=O)N[C@@H](C4CC4)C(F)(F)F)c3n2)o1 [III-248]
0.6 µg/mL (≈ 1.58 µM) | Cc1nc(-c2cc(C)n3ncc(C(=O)NC(C4CC4)C(F)(F)F)c3n2)co1 (stereo not drawn) [III-249]
